What was measured:
5-HT1A receptor = test: [3H]-8-OH-DPAT receptor binding autoradiography on brain sections of CMS rats; type: in vivo, rat
Description: Secondarily, antidepressive effects were evaluated by an increase or decrease in receptor binding of a serotonin 1A receptor agonist, [^3H]-8-OH-DPAT, in the rat prefrontal cortex, hippocampus and hypothalamus, which play important roles in depression, as follows. […] Whole brains were excised from the rats and rapidly frozen in dry ice. The rapidly frozen brains were stored at −70° C. until sectioned. The brains were cryo-sectioned into a size of 20 ? at −20° C. using a cryostat microtome (Leika), and each section was attached onto a gelatin-coated slide (Superfrost/Plus, Fisher Scientific). The slides were stored at −70° C. until use for observing changes in 5-HT1A receptor levels or activity. The changes in 5-HT1A receptor were examined using a radioisotope, [^3H]-8-OH-DPAT. The slides were taken out from a −70° C. freezer where the slides had been stored, and were pre-incubated in Tris-HCl buffer (170 mM Tris, 4 mM CaCl2, pH 7.6) for 30 min at room temperature. Then, the slides were incubated in Tris-HCl buffer containing 2 nM [^3H]-8-OH-DPAT (Amersham) for one hour. This incubation is total binding for observing the changes in the whole 5-HT1A receptor, and non-specific binding was observed using Tris-HCl buffer containing 1 μM 5-HT (Sigma). Then, the slides were washed with Tris-HCl buffer precooled at 4° C. six times and dried with chilled air. The slides were completely dried in a desiccator for 24 hours. The completely dried slides are exposed to Hyperfilm along with a standard scale bar for five weeks. The film exposed for five weeks was developed using a developer and a fixer. For quantitative analysis of density, the film was scanned using an image analysis program, ImageQuant (Molecular dynamics).
The changes in 5-HT1A receptor levels or activity were examined using a radioisotope, [^3H]-8-OH-DPAT. Reduced levels or inactivation of 5-HT1A receptor occur in the prefrontal cortex, hippocampus and hypothalamus of depressed patients. […] This normalization of 5-HT1A receptor by antidepressant administration is effective in treating depression and depression-associated neurodegeneration. Based on this fact, an increase in 5-HT1A receptor levels can be assessed by a receptor binding assay using a 5-HT1A receptor […]. When an increase in 5-HT1A receptor levels is observed upon Nelumbinis Semen administration in comparison with a control group exposed to CMS, this is considered an in vivo indication of an antidepressive effect at the molecular level. After drugs were administered for the last four weeks of the 8-week CMS period, an increase in 5-HT1A receptor levels, as an in vivo indication of antidepressive effect, was found in animals administered with the Nelumbinis Semen extract.

Sprague-Dawley male rats = test: Forced swim test, immobility time; type: in vivo, rat; settings: 5 min forced swim the day after
Description: During forced swimming, the immobility time, when a rat ceases struggling and remains floating motionless in the water, was measured. The forced swimming itself induces depression in rats. Rats in water baths struggle first, and then stop struggling and remain floating motionless in the water. At the immobile state, rats become desperate and almost come to give up their lives. This time is considered to be the situation when depression is induced.
The antidepressive effects of drugs are assessed using this principle. Before being administered with drugs, experimental animals (rats) are dropped into water baths and forced to swim for 15 minutes to be trained to adapt to a suddenly changed environment without fear.
A comparative group was orally administered with a Hypericum perforatum extract. Another comparative group was intraperitoneally administered with fluoxetine. Each drug was administered for one day or six days.
Before the drug administration, the white rats were dropped into a cylindrical water bath (20 cm in diameter; 40 cm water depth) and forced to swim for 15 min. The day after the drug administration for one day or six days, the rats were forced to swim for 5 min, and during this forced swimming, immobility time was measured.

rat hippocampus proteins = test: 2-DE analysis of hippocampus proteins of CMS rats; settings: drug last four weeks, compared to control group
Source text: Thirdly, an increase in marker proteins of antidepression, which play important roles in depression, was examined in the rat hippocampus by 2-DE, as follows. Rats were exposed to CMS for eight weeks and administered with drugs for the last four weeks of a test period. The hippocampus was excised from the rats, suspended with a sonicator and centrifuged, and the supernatants were recovered. Each sample was mixed with an IEF sample buffer and loaded onto an IEF gel. Proteins were separated according to isoelectric point by isoelectric focusing (IEF) in the first dimension and according to molecular weight by SDS-PAGE at 100-200 V for about 1-2 hours in the second dimension. The gel was stained by a Gel-Code Blue staining method and evaluated for elevated or newly emerged proteins by the antidepressive substances. The elevated or newly emerged proteins by the antidepressive substances were subjected to mass spectrometry.
Protein samples from the rat hippocampus were loaded onto an IEF gel. Proteins were separated according to isoelectric point by isoelectric focusing (IEF) in the first dimension and according to molecular weight by SDS-PAGE in the second dimension.

[1] = system: male Wistar white rats exposed to CMS; test: Open field activity after CMS; type: in vivo, rat; settings: 8-week CMS, drug for the last four weeks; average
Source text: The open field consisted of a wooden box of 75×75×30 cm, the floor of which was divided by width and length lines into 15 cm squares. The open field was connected to a small box of 15×15×15 cm, which was used as a start box where experimental animals waited to enter the open field. A vertical sliding door was installed between the start box and the open field. White rats were placed in the start box, and, after 30 sec, the sliding door was open. The time to leave the start box toward the open field, which was expressed as start latency, was recorded. The start latency time means the time ranging from when the door was opened to when the rat tails completely exited the start box. […] The following behaviors were recorded for a total of 10 min: locomotion, rearing, grooming and defecation. Grooming behavior was recorded as the total time spent grooming in 10 min, and the remaining behaviors were all recorded as frequencies. Locomotor activity was recorded by counting the number of squares each white rat crossed on the floor divided into 25 15×15-cm squares using a computer tracking system. […] Grooming was recorded as the number of times each rat stroked its head or combed its fur with its forepaws during 10 min. After the 10-min observation, the white rats were removed from the open field, and defecation frequency was recorded by counting fecal boluses on the floor of the open field.

male rats exposed to CMS = test: Sexual (mating) behavior after CMS; type: in vivo, rat; settings: drug last four weeks
Description: A decrease in sucrose consumption (the core symptom of depression) in rats was confirmed during the 8-week CMS period, and antidepressants were administered for the last four weeks. Then, mating behavior of rats was observed. This test was carried out a dark and quiet room using a 16×16-inch transparent acrylic box. Mature female rats were ovariectomized, and, to induce sexual receptivity, were administered with 20 μg of estradiol benzoate 48 hrs before the test and 1 mg of progesterone 5 hrs before the test. Male rats were singly housed in the same box for 30 min to adapt to a new environment. […] When female rats have sexual receptivity, that is, are estrous, they allow male rats to mount and show lordosis. Sexual behaviors of male rats were divided into mounting, intromission and ejaculation, and frequency of each behavior was recorded. The number of ejaculation (higher frequency generally means higher sexual activity) was recorded for 30 min. The time taken after ejaculation before resumption of sexual activity was called “post-ejaculation interval (PEI)”. A decrease in PEI generally means that male rats have increased sexual activity.

[2] = Body weight in the CMS model of depression; type: in vivo, rat; settings: after 8-week CMS, drug for the last four weeks; versus CMS control group
Source text: The rats were first trained to experience and drink a 1% sucrose solution for 48 hrs to be adapted to sweetness. After three days, the test groups were exposed to CMS (chronic mild stress) for a total of eight weeks. The CMS procedure applied to the test groups was based on the procedure originally designed by Willner et al. (1987). The rats were sequentially exposed to a variety of mild stressors, and a series of stressors was suitably divided over one week and applied to rats according to a predetermined time schedule. This procedure was repeated for eight weeks. […] The control rats were weekly exposed only to food and water deprivation for 20 hrs before sucrose intake was measured, and were normally bred in single cages for the rest of the time with sufficient water and food supply. […] Intake of a 1% sucrose solution was measured once every week in each of the four groups. […] Sucrose preference was expressed as a ratio of sucrose intake to total water and sucrose intake. […] In each group, sucrose intake was monitored from the beginning of CMS and for the CMS period of eight weeks. Body weight was measured before the 20-h water and food deprivation performed to measure sucrose intake every week.

[3] = system: male Wistar white rats exposed to CMS; test: Sucrose intake in the CMS model of depression; type: in vivo, rat; settings: 8-week CMS, drug for the last four weeks
Source text: Postnatal 6-week-old male Wistar white rats weighing 180-200 g were divided into test groups and a control group. The rats were first trained to experience and drink a 1% sucrose solution for 48 hrs to be adapted to sweetness. After three days, the test groups were exposed to CMS (chronic mild stress) for a total of eight weeks. The CMS procedure applied to the test groups was based on the procedure originally designed by Willner et al. (1987). The rats were sequentially exposed to a variety of mild stressors, and a series of stressors was suitably divided over one week and applied to rats according to a predetermined time schedule. This procedure was repeated for eight weeks.
The stress procedure is given in Table 1, below, which describes a weekly CMS regime (20-h food and water deprivation, prey limitation after the food and water deprivation (45 g powdered prey sprinkled), exposure to empty water bottles after the food and water deprivation, all day illumination, 30° cage tilt; soiled cage (400 ml of water spilled on bedding), presentation of intermittent 85-dB white noise, presentation of flashes of light with a stroboscope, and tripled housing). The control rats were weekly exposed only to food and water deprivation for 20 hrs before sucrose intake was measured, and were normally bred in single cages for the rest of the time with sufficient water and food supply. […]

For CNCCC(Oc1ccc(C(F)(F)F)cc1)c1ccccc1 (stereo not drawn) [fluoxetine], the 5-HT1A receptor levels (5-HT1A receptor; CA2 region of the rat hippocampus) was “decrease”, the “decrease in 5-HT1A receptor levels” value (5-HT1A receptor; CA3 region of the rat hippocampus) was 2% and the “decrease in 5-HT1A receptor levels” value (5-HT1A receptor; layer I-II of the rat cerebral frontal cortex, compared to the NS group, P<0.05) was 46%. For the same compound, the 5-HT1A receptor levels (5-HT1A receptor; rat hippocampus and hypothalamus, compared to CMS control group) was “increase”, the “decrease in immobility time in comparison with a control group” value (Sprague-Dawley male rats; one-day drug administration) was 9.3% and the “decrease in immobility time in comparison with a control group” value (Sprague-Dawley male rats; six-day drug administration) was 22.1%. The “protein spots in 2-DE of hippocampus” value (rat hippocampus proteins) was “decrease in spots 1 and 4”, the “visit counts in open field” value [1] was 60 places in 10 min and the “post-ejaculation interval (PEI)” value (male rats exposed to CMS; compared to control animals exposed to CMS) was “no significant difference”. For the same compound, the “sexual behavior (ejaculation frequency in 30 min)” value (male rats exposed to CMS; compared to normal animals) was “remarkably reduced”, the body weight [2] was “greater weight loss than the control group” and the sucrose consumption [3] was “restored to levels similar to the normal group”.

From US20070207230A1, “EXTRACT OF NELUMBINIS SEMEN FOR THE TREATMENT OF DEPRESSION, MEDICINAL COMPOSITE AND HEALTH FOODS INCLUDING THE EXTRACT OF NELUMBINIS SEMEN” (PURIMED CO., LTD., priority 2004, published 2007)
